Laboratory results published in ChEMBL document CHEMBL4699395, “Synthesis and evaluation of novel 2,4-disubstituted arylthiazoles against T. brucei” (RSC Med Chem, 2020).

Legend:
Trypanosoma brucei = assay: Antitrypanosomal activity against Trypanosoma brucei 427 bloodstream form assessed as concentration required to inhibit 50% parasite growth incubated for 48 hrs by Alamar blue assay; assay type: functional, organism-based; conditions: Trypanosoma brucei, 427, 48 h
[1] = Selectivity index, ratio of IC50 for rat L6 cells assessed as cell growth inhibition incubated for 6 days by Alamar blue assay to IC50 for Trypanosoma brucei 427 bloodstream form assessed as parasite growth inhibition incubated for 48 hrs by Alamar blue assay; conditions: L6 cells (versus Trypanosoma brucei 427 bloodstream form)

Structure (SMILES)	IC50 (Trypanosoma brucei) [µM]	selectivity ratio at 48 h [1]
N=C(N)Nc1nc(-c2ccc(C34CC5CC(CC(C5)C3)C4)cc2)cs1	10	
NCc1nc(-c2ccc(C34CC5CC(CC(C5)C3)C4)cc2)cs1		< 1
